Assays:
[1] = tested on: Macrophage cell line; assay: Effect on lipid mediator formation in human M1-like phenotype MDM cells by measuring arachidonic acid formation at 10 uM pre-incubated for 15 mins followed by SACM stimulation and measured after 90 mins by UPLC-MS/MS analysis (reference value: 69242 +/- 58 pg/ml); format: functional; conditions: time 105 min, 1.75 h
[2] = tested on: Macrophage cell line; assay: Effect on lipid mediator formation in human M2-like phenotype MDM cells by measuring 14-HDHA formation at 10 uM pre-incubated for 15 mins followed by SACM stimulation and measured after 90 mins by UPLC-MS/MS analysis (reference value: 1517 +/- 298 pg/ml); format: functional; conditions: time 105 min, 1.75 h
[3] = target: T1, Polyunsaturated fatty acid 5-lipoxygenase (Homo sapiens) (UniProt P09917); assay: Inhibition of 5-LOX in human Neutrophil at 10 uM using arachidonic acid as substrate preincubated with compound for 15 mins followed by substrate and A23187 addition measured after 10 mins by RP-HPLC analysis relative to control; format: cell-based; conditions: time 25.0 min
T1 sequence (whole entry): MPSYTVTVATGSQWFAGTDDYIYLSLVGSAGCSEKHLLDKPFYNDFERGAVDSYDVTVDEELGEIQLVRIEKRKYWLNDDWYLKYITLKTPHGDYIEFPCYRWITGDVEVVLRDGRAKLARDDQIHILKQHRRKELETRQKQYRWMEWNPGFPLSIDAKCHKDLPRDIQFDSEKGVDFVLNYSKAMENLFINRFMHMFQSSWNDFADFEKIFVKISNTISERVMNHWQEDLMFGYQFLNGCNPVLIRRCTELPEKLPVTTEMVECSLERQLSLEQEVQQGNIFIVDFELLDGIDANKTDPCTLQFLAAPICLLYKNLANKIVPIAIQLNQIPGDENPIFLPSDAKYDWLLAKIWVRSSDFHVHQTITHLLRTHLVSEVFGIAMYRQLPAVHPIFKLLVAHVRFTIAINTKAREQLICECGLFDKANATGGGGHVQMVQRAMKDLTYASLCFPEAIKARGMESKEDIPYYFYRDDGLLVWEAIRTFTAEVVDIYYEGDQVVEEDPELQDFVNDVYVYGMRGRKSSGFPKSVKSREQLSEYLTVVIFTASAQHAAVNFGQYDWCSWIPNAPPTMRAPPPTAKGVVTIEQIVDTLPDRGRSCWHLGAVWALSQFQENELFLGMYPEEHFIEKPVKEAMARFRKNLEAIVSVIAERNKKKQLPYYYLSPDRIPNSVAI

[4] = tested on: Macrophage cell line; assay: Effect on lipid mediator formation in human M2-like phenotype MDM cells by measuring RvD2 formation at 10 uM pre-incubated for 15 mins followed by SACM stimulation and measured after 90 mins by UPLC-MS/MS analysis (reference value: 6 +/- 1 pg/ml); format: functional; conditions: time 105 min, 1.75 h
[5] = target: T2, Bifunctional epoxide hydrolase 2 (Homo sapiens) (UniProt P34913); assay: Inhibition of human sEH at 10 uM relative to control
T2 sequence (whole entry): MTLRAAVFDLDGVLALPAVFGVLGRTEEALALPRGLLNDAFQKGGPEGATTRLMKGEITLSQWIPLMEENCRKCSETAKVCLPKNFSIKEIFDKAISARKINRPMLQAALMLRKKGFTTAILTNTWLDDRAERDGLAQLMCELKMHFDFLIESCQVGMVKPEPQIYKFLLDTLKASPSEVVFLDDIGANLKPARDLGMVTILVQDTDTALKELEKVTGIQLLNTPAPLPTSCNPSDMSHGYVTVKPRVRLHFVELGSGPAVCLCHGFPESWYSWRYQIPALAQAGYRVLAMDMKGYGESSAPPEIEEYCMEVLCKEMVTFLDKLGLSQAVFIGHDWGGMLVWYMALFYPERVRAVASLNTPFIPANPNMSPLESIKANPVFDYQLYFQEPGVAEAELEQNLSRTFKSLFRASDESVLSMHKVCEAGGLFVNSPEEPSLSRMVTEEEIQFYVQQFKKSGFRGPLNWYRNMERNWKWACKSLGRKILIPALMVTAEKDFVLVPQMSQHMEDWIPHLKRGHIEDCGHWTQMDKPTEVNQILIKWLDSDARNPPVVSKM

[6] = tested on: Macrophage cell line; assay: Effect on lipid mediator formation in human M1-like phenotype MDM cells by measuring 12-HEPE formation at 10 uM pre-incubated for 15 mins followed by SACM stimulation and measured after 90 mins by UPLC-MS/MS analysis (reference value: 40 +/- 9 pg/ml); format: functional; conditions: time 105 min, 1.75 h
[7] = tested on: Macrophage cell line; assay: Effect on lipid mediator formation in human M1-like phenotype MDM cells by measuring PGE2 formation at 10 uM pre-incubated for 15 mins followed by SACM stimulation and measured after 90 mins by UPLC-MS/MS analysis (reference value: 1789 +/- 871 pg/ml); format: functional; conditions: time 105 min, 1.75 h
[8] = tested on: Macrophage cell line; assay: Effect on lipid mediator formation in human M2-like phenotype MDM cells by measuring 15-HEPE formation at 10 uM pre-incubated for 15 mins followed by SACM stimulation and measured after 90 mins by UPLC-MS/MS analysis (reference value: 1385 +/- 343 pg/ml); format: functional; conditions: time 105 min, 1.75 h
[9] = tested on: Macrophage cell line; assay: Effect on lipid mediator formation in human M2-like phenotype MDM cells by measuring 5-HEPE formation at 10 uM pre-incubated for 15 mins followed by SACM stimulation and measured after 90 mins by UPLC-MS/MS analysis relative to control; format: functional; conditions: time 105 min, 1.75 h
[10] = tested on: Macrophage cell line; assay: Effect on lipid mediator formation in human M1-like phenotype MDM cells by measuring DHA formation at 10 uM pre-incubated for 15 mins followed by SACM stimulation and measured after 90 mins by UPLC-MS/MS analysis (reference value: 66334 +/- 8894 pg/ml); format: functional; conditions: time 105 min, 1.75 h
[11] = target: T1, Polyunsaturated fatty acid 5-lipoxygenase (Homo sapiens); assay: Inhibition of 5-LOX in human Neutrophil assessed as enzyme remaining activity at 10 uM preincubated with compound for 15 mins followed by A23187 addition measured after 10 mins by RP-HPLC analysis relative to control; format: cell-based; conditions: time 25.0 min
[12] = tested on: Macrophage cell line; assay: Effect on lipid mediator formation in human M2-like phenotype MDM cells by measuring arachidonic acid formation at 10 uM pre-incubated for 15 mins followed by SACM stimulation and measured after 90 mins by UPLC-MS/MS analysis relative to control; format: functional; conditions: time 105 min, 1.75 h

inhibition [3] [%]	inhibition [5] [%]	Activity [11] [%]	SMILES	Activity [1] [pg/mL]	Activity [2] [pg/mL]	Activity [4] [pg/mL]	Activity [6] [pg/mL]	Activity [7] [pg/mL]	Activity [8] [pg/mL]	Activity [9] [%]	Activity [10] [pg/mL]	Activity [12] [%]
> 50	> 35	4.2	Oc1ccc(CCC2CCC(c3ccc(O)cc3)CO2)cc1 (centres undefined)	74786	2101	5	36	1236	1937	34	62371	113
> 50	> 35	19.6	COc1ccc(C2=C/C(=C/c3ccc(O)cc3O)C(=O)O2)cc1	80565	2718	6	37	1656	2169	18	71742	103
